Holding throughout (assay type): functional, cell-based
One assay concerns HCT-116. As to the kind of experiment: Cytotoxicity against human HCT116 cells assessed as reduction in cell viability after 48 hrs by MTT assay. The conditions noted are these: HCT-116, 48 h.
A further assay has as its system N2a. Briefly: Cytotoxicity against mouse Neuro2a cells assessed as reduction in cell viability after 48 hrs by MTT assay. In general terms: Tetrazolium assays rely on reduction of a dye to a coloured formazan, in cell work by metabolically active cells.
In the next assay the test system is HepG2. As to the kind of experiment: Cytotoxicity against human HepG2 cells assessed as reduction in cell viability after 48 hrs by MTT assay. The note with it: HepG2, 48 h.

Each structure is given as a SMILES string.

As a reminder, the IC50 is the concentration at which inhibition is half-maximal. With `C=C1CCC[C@H]2O[C@H](CC3=C[C@@H]4/C(C)=C/C[C@@H](C)C[C@@H](/C=C(\C)[C@@H](O)[C@@H]5C[C@@H](O)[C@H](O)[C@@H](CC[C@H](O)/C=C/C(C)=C/CCC6=NCC[C@H](C3)[C@@]64C)O5)OC(=O)C[C@@H]3O[C@H]([C@@H](O)[C@H]3O)[C@@H](O)C1)C[C@@H](O)[C@@H]2O`, the IC50 with HCT-116, with N2a and in the assay with HepG2 was over 10 µM in each case.
`C=C1CC/C=C/[C@@H](O)[C@H](O)C[C@H](O)CC2=C[C@@H]3/C(C)=C/C[C@@H](C)C[C@@H](/C=C(\C)[C@@H](O)[C@@H]4C[C@@H](O)[C@H](O)[C@@H](CC[C@H](O)/C=C/C(C)=C/CCC5=NCC[C@H](C2)[C@@]53C)O4)OC(=O)C[C@@H]2O[C@H]([C@@H](O)[C@H]2O)[C@@H](O)C1`: the IC50 with HCT-116 was 2.2 µM; in the assay with N2a, 5.2 µM; with HepG2, over 50 µM.

(Values after ChEMBL document CHEMBL4400584, “Relative Configurational Assignment of 4-Hydroxyprorocentrolide and Prorocentrolide C Isolated from a Benthic Dinoflagellate ( Prorocentrum lima)” (J Nat Prod, 2019).)
